Measurements: BindingDB's records for PubMed 39291025 (PI Health Sciences)

test: Inhibition of cGAS in human THP-1 cells […] incubated for 18 hrs by Lucia luciferase reporter based counter assay

SMILES	IC50 [µM]
C[C@@H]1CN2CC[C@H]1n1c(nc3cc(Cl)ccc31)O[C@H]1C[C@@H](C(=O)O)N(C1)c1nc(nc3c1oc1ccccc13)CCOCCCC2=O	> 10
CC(=O)[C@@H]1C[C@H]2CN1c1nc(nc3c1oc1ccccc13)CCOCCCC(=O)N1CC[C@@H]([C@@H](C)C1)n1c(nc3cc(Cl)ccc31)O2	> 10
C[C@H]1CN2CC[C@@H]1n1c(nc3cc(Cl)ccc31)O[C@H]1C[C@@H](C(=O)O)N(C1)c1nc(nc3c1oc1cc(Cl)ccc13)CCOCCCC2=O	9.5
C[C@H]1CN2CC[C@@H]1n1c(nc3ccccc31)O[C@H]1C[C@@H](C(=O)O)N(C1)c1nc(nc3c1oc1cc(Cl)ccc13)C(F)(F)CCCOCC2=O	> 10
C[C@H]1CN2CC[C@H]1n1c(nc3ccccc31)O[C@H]1C[C@@H](C(=O)O)N(C1)c1nc(nc3c1oc1ccccc13)C(F)(F)COCCCCC2=O	14
C[C@H]1CN2CC[C@@H]1n1c(nc3cc(Cl)ccc31)O[C@H]1C[C@@H](C(=O)O)N(C1)c1nc(nc3c1oc1ccccc13)C(F)(F)OCCCCC2=O	> 10

Stronger by IC50, values ahead:

IC50 [µM]	SMILES
6.6	C[C@H]1CN2CC[C@@H]1n1c(nc3ccccc31)O[C@H]1C[C@@H](C(=O)O)N(C1)c1nc(nc3c1oc1ccccc13)C(F)(F)CCCCC(F)(F)C2=O
6	Cc1cccc2c1nc1n2[C@@H]2CCN(C[C@H]2C)C(=O)CCCCCC(F)(F)c2nc(c3oc4ccccc4c3n2)N2C[C@H](C[C@H]2C(=O)O)O1
8.2	C[C@@H]1CN2CC[C@H]1n1c(nc3ccccc31)O[C@H]1C[C@@H](C(=O)O)N(C1)c1nc(nc3c1oc1ccccc13)CCCCCOC2=O
7.3	C[C@H]1CN2CC[C@@H]1n1c(nc3ccccc31)O[C@H]1C[C@@H](C(=O)O)N(C1)c1nc(nc3c1oc1ccccc13)CCCCCN(C)C2=O
